US20230248833A1, “COMPOUND HAVING BTK KINASE DEGRADING ACTIVITY, AND PREPARATION METHOD AND PHARMACEUTICAL USE THEREFOR” (SICHUAN HAISCO PHARMACEUTICAL CO., LTD., priority 2020, published 2023)
Like-named read-outs stand apart in the source and are kept apart here.

What was measured:
[1] = tested on: Mino cells; assay: Inhibition of cell proliferation, Mino cells (Cell Viability Assay, 72 h); type: cell-based, human; conditions: Homo sapiens, MINO, 72 h
Method: (§1) SU-DHL-4, Mino, and SU-DHL-6 cells, in the culture medium of RPMI1640+10% FBS, were cultured in an incubator at 37° C. under 5% CO2. Cells were plated in a 96-well plate. Specifically, SU-DHL-4 cells were at 20000/well, Mino and SU-DHL-6 cells were at 5000/well, with 90 μL/well. 10 μL of the compounds at different concentrations were added to each well. There were 3 replicate wells for each concentration, and the last column, added with DMSO, was used as a vehicle control group. The cultures were continued for 72 hours at 37° C. under 5% CO2. After 72 hours, 100 μL of detection reagent (Cell Viability Assay, Promega, G7573) was added to each well, and the cultures were uniformly mixed for 2 minutes, and incubated at room temperature for 10 minutes. The […] signal value was measured with a microplate reader (PHERAstar FSX). The IC50 value of the compound on cell proliferation inhibition was calculated using origin9.2 software, and the inhibition rate at the highest concentration of the compound (Max inhi.%) was calculated according to formula (1).
(§2) Max inhi.%=(1−T72administration/T72vehicle)×100 Formula (1).

[2] = tested on: SU-DHL-4 cells; assay: Inhibition of cell proliferation, SU-DHL-4 cells (Cell Viability Assay, 72 h); type: cell-based, human
Method: as §1, §2

[3] = tested on: SU-DHL-6 cells; assay: Inhibition of cell proliferation, SU-DHL-6 cells (Cell Viability Assay, 72 h); type: cell-based, human
Method: as §1, §2

[4] = Pharmacokinetic experiment in rats; type: in vivo; conditions: male, SD, rat, plasma, po; for AUC(0-t): single dose
Method: Experimental objective: In this experiment, a single dose of each test compound was administered to SD rats intravenously and intragastrically, the concentrations of the test compound in plasma of rats were measured, and the pharmacokinetic characteristics and bioavailability of the test compound in rats were evaluated.
Experimental animals: Male SD rats, about 200 g, 6-8 weeks old, 6 rats/compound. Rats were purchased from Hunan SJA Laboratory Animal Co., Ltd, with the laboratory animal production license number of SCXK (Xiang) 2019-004.
Experimental method: On the day of the experiment, 6 SD rats were randomly grouped according to their body weight. The animals were fasted with water available for 12 to 14 hours one day before the administration of a test compound, and were fed 4 hours after the administration.
Before and after the administration, […] of blood was taken from the orbit of the rats under isoflurane anesthesia, and placed in an EDTAK2 centrifuge tube. Centrifugation was carried out at 5000 rpm at 4° C. for 10 min, and the plasma was collected.
Time points for sample collection in G1&G2 groups comprise
Before analysis and detection, all samples were stored at −80° C. The samples were detected by HPLC-MS/MS.

[5] = target: T1, BTK (Homo sapiens, UniProt Q06187); assay: Detection of BTK degradation in Mino cells (automated western blot); type: cell-based; conditions: 48 hours
T1 construct: endogenous in cells; host or cells: Mino human mantle cell lymphoma cells (ATCC)
T1 sequence (Q06187 whole entry): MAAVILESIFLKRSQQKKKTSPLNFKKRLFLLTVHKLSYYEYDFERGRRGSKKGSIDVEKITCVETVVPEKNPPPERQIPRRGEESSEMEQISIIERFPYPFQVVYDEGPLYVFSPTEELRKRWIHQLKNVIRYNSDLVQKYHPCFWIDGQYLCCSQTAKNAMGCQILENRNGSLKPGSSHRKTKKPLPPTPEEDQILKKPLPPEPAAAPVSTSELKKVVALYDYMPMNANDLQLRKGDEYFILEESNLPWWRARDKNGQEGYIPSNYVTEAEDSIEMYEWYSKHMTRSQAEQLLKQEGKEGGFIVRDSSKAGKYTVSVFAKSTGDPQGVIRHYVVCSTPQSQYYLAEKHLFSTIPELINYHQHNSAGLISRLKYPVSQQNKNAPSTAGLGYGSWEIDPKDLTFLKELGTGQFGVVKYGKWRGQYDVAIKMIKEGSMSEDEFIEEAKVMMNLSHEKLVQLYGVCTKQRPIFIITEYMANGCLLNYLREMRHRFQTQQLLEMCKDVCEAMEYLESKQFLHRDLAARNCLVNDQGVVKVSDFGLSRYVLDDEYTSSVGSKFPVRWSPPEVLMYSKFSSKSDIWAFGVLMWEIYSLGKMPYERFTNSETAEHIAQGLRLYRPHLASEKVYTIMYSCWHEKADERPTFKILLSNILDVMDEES
Method: Mino human mantle cell lymphoma cell line was purchased from ATCC and cultured under the following conditions: RPMI-1640+15% FBS+1% double antibody in a 37° C., 5% CO2 incubator. Cells were plated in a 6-well plate, with 5×10^5 cells/well. After plating, the compounds at different concentrations were added and cultured in an incubator at 37° C. under 5% CO2 for 48 hours. After culturing, the cells were collected, and RIPA lysis buffer (Beyotime, Cat. P0013B) was added. The cells were lysed on ice for 15 minutes, and centrifuged at 12000 rpm at 4° C. for 10 minutes. The protein sample of the supernatant was collected, and the protein was quantified by using the BCA kit (Beyotime, Cat. P0009), and then the protein was diluted to 0.25 mg/mL. The expressions of BTK (CST, Cat. 8547S) and the internal reference β-actin (CST, Cat. 3700S) were detected using a fully automated western blot quantitative analyzer (Proteinsimple) with a kit (Protein simple, Cat. SM-W004). The expression level of BTK relative to the internal reference was calculated using Compass software, and the DC50 value was calculated using Origin9.2 software according to formula (3). Specifically, the BTKadministration denoted the expression level of BTK in administration groups at different doses, and the BTKvehicle denoted the expression level of BTK in the vehicle control group. […]

[6] = target: T2, BTK protein (Mus musculus, UniProt P35991); assay: Detection of BTK protein degradation in spleen of mice; type: in vivo; conditions: po, female ICR mice, 3 consecutive days of intragastric administration, read-out: DD50 value of compounds on BTK protein degradation in spleen of mice
T2 construct: from tissue; host or cells: spleen of female ICR mice
T2 sequence (P35991 whole entry): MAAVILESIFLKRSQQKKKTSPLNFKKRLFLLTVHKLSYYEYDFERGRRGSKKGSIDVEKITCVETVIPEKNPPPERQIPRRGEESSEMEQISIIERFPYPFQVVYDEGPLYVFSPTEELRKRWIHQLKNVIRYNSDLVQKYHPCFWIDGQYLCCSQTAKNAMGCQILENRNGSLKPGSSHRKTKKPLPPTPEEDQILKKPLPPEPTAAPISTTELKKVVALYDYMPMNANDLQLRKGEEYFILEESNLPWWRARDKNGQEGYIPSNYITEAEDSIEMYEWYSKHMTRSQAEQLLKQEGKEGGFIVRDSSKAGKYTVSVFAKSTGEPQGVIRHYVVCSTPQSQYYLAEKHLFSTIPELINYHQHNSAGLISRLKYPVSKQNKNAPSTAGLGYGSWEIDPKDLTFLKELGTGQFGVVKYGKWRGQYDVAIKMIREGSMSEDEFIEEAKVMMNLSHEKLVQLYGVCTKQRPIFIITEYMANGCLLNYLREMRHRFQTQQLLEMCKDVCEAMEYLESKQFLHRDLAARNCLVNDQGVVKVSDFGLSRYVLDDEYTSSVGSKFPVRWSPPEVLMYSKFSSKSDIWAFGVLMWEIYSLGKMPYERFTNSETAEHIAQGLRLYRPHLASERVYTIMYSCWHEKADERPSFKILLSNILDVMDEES
Method: Female ICR mice, 6-8 weeks old, were purchased from BEIJING VITAL RIVER LABORATORY ANIMAL TECHNOLOGY CO., LTD, and the experiment was started after 3 days of adaptation. After 3 consecutive days of intragastric administration of different doses of the compound, the spleen of mice was taken, the spleen cells were collected, and RIPA lysis buffer (Beyotime, Cat. P0013B) was added. The cells were lysed on ice for 15 minutes, and centrifuged at 12000 rpm at 4° C. for 10 minutes. The protein sample of the supernatant was collected, and the protein was quantified by using the BCA kit (Beyotime, Cat. P0009), and then the protein was diluted to 0.25 mg/mL. The expressions of BTK (CST, Cat. 8547S) and the internal reference β-actin (CST, Cat. 3700S) were detected using a fully automated western blot quantitative analyzer (Proteinsimple). The expression level of BTK relative to the internal reference was calculated using Compass software, and the DD50 value was calculated using Origin9.2 software according to formula (4). Specifically, the BTKadministration denoted the expression level of BTK in administration groups at different doses, and the BTKvehicle denoted the expression level of BTK in the vehicle control group. BTK %=BTKadministration/BTKvehicle×100% formula (4)

[7] = target: T3, Aiolos (Homo sapiens, UniProt Q9UKT9); assay: Detection of Aiolos degradation in Mino cells (automated western blot); type: cell-based; conditions: 48 hours
T3 construct: endogenous in cells; host or cells: Mino human mantle cell lymphoma cells (ATCC)
T3 sequence (Q96SW2 whole entry partner): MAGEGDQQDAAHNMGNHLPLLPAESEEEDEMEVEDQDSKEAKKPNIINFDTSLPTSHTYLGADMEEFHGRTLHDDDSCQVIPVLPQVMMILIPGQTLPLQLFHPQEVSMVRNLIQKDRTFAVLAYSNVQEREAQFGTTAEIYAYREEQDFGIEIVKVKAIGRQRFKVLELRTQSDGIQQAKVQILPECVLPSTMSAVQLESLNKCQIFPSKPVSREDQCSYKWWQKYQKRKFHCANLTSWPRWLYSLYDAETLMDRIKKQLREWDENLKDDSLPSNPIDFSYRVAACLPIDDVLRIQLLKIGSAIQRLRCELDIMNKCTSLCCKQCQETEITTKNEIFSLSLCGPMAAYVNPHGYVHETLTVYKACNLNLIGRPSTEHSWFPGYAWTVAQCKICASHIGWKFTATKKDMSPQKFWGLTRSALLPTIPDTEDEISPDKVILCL
T3 sequence (Q16531 whole entry partner): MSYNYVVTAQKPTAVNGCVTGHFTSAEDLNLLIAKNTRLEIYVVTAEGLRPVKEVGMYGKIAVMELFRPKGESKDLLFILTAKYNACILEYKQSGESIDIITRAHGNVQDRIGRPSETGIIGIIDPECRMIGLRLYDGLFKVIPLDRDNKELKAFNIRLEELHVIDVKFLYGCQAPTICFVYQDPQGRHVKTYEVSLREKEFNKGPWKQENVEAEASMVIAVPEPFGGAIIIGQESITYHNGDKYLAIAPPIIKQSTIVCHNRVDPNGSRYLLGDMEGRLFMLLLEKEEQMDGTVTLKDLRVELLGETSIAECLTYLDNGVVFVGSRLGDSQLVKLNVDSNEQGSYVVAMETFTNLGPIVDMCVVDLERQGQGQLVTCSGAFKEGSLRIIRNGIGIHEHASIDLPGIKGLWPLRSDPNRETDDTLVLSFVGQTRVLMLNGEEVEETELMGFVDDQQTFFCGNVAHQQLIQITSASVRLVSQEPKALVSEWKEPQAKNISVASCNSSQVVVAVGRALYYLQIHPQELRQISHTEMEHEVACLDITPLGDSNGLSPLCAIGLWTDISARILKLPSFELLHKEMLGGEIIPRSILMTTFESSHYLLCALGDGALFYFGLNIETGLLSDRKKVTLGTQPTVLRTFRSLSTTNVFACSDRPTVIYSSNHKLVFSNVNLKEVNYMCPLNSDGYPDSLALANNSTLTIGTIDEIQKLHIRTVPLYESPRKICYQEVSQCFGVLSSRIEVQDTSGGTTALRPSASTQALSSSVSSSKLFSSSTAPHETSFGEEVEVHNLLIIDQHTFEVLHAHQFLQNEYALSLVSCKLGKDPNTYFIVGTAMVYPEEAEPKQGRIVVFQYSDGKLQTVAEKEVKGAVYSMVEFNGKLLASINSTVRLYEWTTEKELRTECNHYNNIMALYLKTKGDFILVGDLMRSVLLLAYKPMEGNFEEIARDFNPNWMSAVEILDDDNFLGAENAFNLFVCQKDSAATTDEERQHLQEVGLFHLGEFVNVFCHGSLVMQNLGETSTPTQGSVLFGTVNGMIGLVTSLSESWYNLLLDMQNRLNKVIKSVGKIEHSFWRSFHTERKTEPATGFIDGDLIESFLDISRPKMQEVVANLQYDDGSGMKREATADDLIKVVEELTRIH
T3 sequence (Q9UKT9 whole entry): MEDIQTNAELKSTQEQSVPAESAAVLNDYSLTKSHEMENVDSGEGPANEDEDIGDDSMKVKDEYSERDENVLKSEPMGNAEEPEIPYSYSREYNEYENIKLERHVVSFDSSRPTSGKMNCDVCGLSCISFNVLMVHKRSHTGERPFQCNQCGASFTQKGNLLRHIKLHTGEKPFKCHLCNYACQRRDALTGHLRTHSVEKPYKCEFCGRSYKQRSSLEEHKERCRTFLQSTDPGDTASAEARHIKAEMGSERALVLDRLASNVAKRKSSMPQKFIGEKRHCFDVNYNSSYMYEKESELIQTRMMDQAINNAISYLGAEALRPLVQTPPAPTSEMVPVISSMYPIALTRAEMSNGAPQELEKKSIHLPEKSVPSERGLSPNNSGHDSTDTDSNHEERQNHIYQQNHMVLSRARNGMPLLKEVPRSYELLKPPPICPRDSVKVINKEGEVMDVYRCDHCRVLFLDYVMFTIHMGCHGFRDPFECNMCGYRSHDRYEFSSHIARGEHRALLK
Method: Mino is a human mantle cell lymphoma cell line purchased from ATCC and cultured under the following conditions: RPMI-1640+15% FBS+1% double antibody in a 37° C., 5% CO2 incubator. Cells were plated in a 6-well plate, with 5×10^5 cells/well. After plating, the compounds at different concentrations were added and cultured in an incubator at 37° C. under 5% CO2 for 48 hours. After culturing, the cells were collected, and RIPA lysis buffer (Beyotime, Cat. P0013B) was added. The cells were lysed on ice for 15 minutes, and centrifuged at 12000 rpm at 4° C. for 10 minutes. The protein sample of the supernatant was collected, and the protein was quantified by using the BCA kit (Beyotime, Cat. P0009), and then the protein was diluted to 0.25 mg/mL. The expressions of Aiolos (CST, Cat. 15103S) and the internal reference GAPDH (CST, Cat. 5174S) were detected using a fully automated western blot quantitative analyzer (Proteinsimple). The expression level of Aiolos relative to the internal reference was calculated using Compass software, and the DC50 value was calculated using Origen9.2 software according to formula (5). Specifically, the Aiolosadministration denoted the expression level of Aiolos in administration groups at different doses, and the Aiolosvehicle denoted the expression level of Aiolos in the vehicle control group.
Aiolos %=Aiolosadministration/Aiolosvehicle×100% formula (5)

[8] = target: T4, hERG potassium ion channel (Homo sapiens, UniProt Q12809); assay: Effect on hERG potassium ion channel, manual patch-clamp in CHO cells; type: cell-based; conditions: CHO cells stably expressing hERG, whole cell patch-clamp, room temperature; read-out: IC50 value of inhibitory effect on hERG potassium channel current
T4 construct: expressed in transfected cells
T4 sequence (Q12809 whole entry): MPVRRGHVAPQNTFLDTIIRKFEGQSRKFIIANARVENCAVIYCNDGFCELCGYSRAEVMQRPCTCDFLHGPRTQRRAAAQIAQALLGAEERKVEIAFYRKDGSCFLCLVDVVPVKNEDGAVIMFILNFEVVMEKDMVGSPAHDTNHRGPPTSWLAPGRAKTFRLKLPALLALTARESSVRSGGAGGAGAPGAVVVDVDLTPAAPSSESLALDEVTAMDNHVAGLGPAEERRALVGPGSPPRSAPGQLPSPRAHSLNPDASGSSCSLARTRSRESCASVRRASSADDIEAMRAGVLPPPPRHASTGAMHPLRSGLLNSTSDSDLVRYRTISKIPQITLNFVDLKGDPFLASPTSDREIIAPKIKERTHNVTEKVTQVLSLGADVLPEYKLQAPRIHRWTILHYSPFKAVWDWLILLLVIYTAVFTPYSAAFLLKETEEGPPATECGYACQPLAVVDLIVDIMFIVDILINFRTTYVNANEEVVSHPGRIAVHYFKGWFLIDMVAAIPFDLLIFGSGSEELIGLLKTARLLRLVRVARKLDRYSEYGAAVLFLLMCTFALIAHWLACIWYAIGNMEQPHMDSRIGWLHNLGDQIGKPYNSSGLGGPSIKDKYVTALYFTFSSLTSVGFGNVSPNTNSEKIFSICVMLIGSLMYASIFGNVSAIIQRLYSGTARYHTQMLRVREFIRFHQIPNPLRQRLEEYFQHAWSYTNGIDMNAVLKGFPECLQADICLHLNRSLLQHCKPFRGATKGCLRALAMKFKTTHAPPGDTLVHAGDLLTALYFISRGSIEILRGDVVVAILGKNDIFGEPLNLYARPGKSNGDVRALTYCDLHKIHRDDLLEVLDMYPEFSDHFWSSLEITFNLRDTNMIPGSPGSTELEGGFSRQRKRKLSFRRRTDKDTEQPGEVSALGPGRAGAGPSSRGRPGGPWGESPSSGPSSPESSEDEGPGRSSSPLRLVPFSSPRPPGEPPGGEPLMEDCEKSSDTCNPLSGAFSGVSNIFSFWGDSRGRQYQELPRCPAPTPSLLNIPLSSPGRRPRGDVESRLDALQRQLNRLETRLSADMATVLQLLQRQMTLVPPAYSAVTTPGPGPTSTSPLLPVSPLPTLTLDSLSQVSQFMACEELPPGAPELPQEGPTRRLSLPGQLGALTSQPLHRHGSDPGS
Description: Experimental platform: electrophysiological manual patch-clamp system
Cell line: Chinese hamster ovary (CHO) cells stably expressing hERG potassium ion channel
Experimental method: In CHO (Chinese Hamster Ovary) cells stably expressing hERG potassium channel, whole cell patch-clamp technique was used to recorded hERG potassium channel current at room temperature. The glass microelectrode is made of a glass electrode blank (BF150-86-10, Sutter) by a puller. The tip resistance after filling the liquid in the electrode is about 2-5 MQ. The glass microelectrode can be connected to the patch-clamp amplifier by inserting the glass microelectrode into an amplifier probe. The clamping voltage and data recording are controlled and recorded by the pClamp 10 software through a computer. The sampling frequency is 10 kHz, and the filtering frequency is 2 kHz. […]
Data analysis processing was carried out by using pClamp 10, GraphPad Prism 5 and Excel software. The inhibition degree of hERG potassium current (peak value of hERG tail current induced at −50 mV) at different compound concentrations was calculated by the following formula: […]
Compound IC50 was calculated using GraphPad Prism 5 software by fitting according to the following equation: […]

Row | SMILES | IC50 [1] [nM] | IC50 [2] [nM] | IC50 ([2]; listed as compound 85) [nM] | IC50 [3] [nM] | bioavailability ([4]; i.g. (20 mg/kg), bioavailability) [%] | AUC(0-t) ([4]; i.g. (20 mg/kg)) [ng·h/mL] | DC50 [5] [nM] | ED50 [6] [mg/kg] | DC50 [7] [nM] | IC50 ([3]; Homo sapiens, SU-DHL-6, 72 h) [nM] | IC50 [8] [nM] | AUC(0-t) ([4]; i.g. (5 mg/kg)) [ng·h/mL]
1 | Nc1ncnc2c1c(-c1ccc(Oc3ccccc3)cc1)nn2C1CCN(C2CN(CC3CN(c4ccc5c(c4)C(=O)N(C4CCC(=O)NC4=O)C5=O)C3)C2)CC1 (centres unmarked) [Compound 85, 5-(3-((3-(4-(4-amino-3-(4-phenoxyphenyl)-1H-pyrazolo[3,4-d]pyrimidin-1-yl)piperidin-1-yl)azetidin-1-yl)methyl)azetidin-1-yl)-2-(2,6-dioxopiperidin-3-yl)isoindoline-1,3-dione] | 32 | 624 | 10 to 1000 | 26 | 17.4 ± 5.6 | 3030 ± 982 | 1.6 | 3.3 | ≥ 1000 |  |  | 
2 | Nc1ncnc2c1c(-c1ccc(Oc3ccccc3)cc1)nn2[C@H]1CCN(C2CN(CC3(F)CN(c4cc5c(cc4F)C(=O)N(C4CCC(=O)NC4=O)C5=O)C3)C2)C[C@H]1F (stereo partly drawn) [Compound 113, 5-(3-((3-((3R,4S)-4-(4-amino-3-(4-phenoxyphenyl)-1H-pyrazolo[3,4-d]pyrimidin-1-yl)-3-fluoropiperidin-1-yl)azetidin-1-yl)methyl)-3-fluoroazetidin-1-yl)-2-(2,6-dioxopiperidin-3-yl)-6-fluoroisoindoline-1,3-dione] | 61 |  |  |  |  | 3820 ± 811 |  |  |  | 100 | > 40000 | 
3 | Nc1ncnc2c1c(-c1ccc(Oc3ccccc3)cc1)nn2C1CCN(C2CN(CC3(F)CN(c4cc5c(cc4F)C(=O)N(C4CCC(=O)NC4=O)C5=O)C3)C2)CC1 (centres unmarked) [Compound 115, 5-(3-((3-(4-(4-amino-3-(4-phenoxyphenyl)-1H-pyrazolo[3,4-d]pyrimidin-1-yl)piperidin-1-yl)azetidin-1-yl)methyl)-3-fluoroazetidin-1-yl)-2-(2,6-dioxopiperidin-3-yl)-6-fluoroisoindoline-1,3-dione] | 166 |  |  |  |  | 5820 ± 2260 |  |  |  | 133 | > 40000 | 
4 | Nc1ncnc2c1c(-c1ccc(Oc3ccccc3)cc1)nn2C1CCN(C2CN(CC3CCN(c4ccc5c(c4)C(=O)N(C4CCC(=O)NC4=O)C5=O)C3)C2)CC1 (centres unmarked) [Trifluoroacetate of compound 99, 5-(3-((3-(4-(4-amino-3-(4-phenoxyphenyl)-1H-pyrazolo[3,4-d]pyrimidin-1-yl)piperidin-1-yl)azetidin-1-yl)methyl)pyrrolidine-1-yl)-2-(2,6-dioxopiperidin-3-yl)isoindoline-1,3-dione] | 21 |  |  |  |  |  |  |  |  | 24 |  | 504 ± 131
